Test results taken from publication PMC7171691 (Journal of Tropical Medicine, 2020).
Converted amounts (≈) assume the structure as drawn. “Also recorded” adds a separate entry of the source. Where two headings read alike, the source gives them in different places.

Columns and labels:
[1] = Solubility observations; type: physicochemical
[2] = Acute oral toxicity in mice; conditions: mouse, in vivo, 28 days
[3] = MTT cytotoxicity assay; type: cell-based, African green monkey (Cercopithecus aethiops); conditions: African green monkey (Cercopithecus aethiops)
Method: (§1) To conduct in vitro toxicity, stock solutions of the test compound and reference drugs were prepared with sterile water. […] The test samples were prepared as a 1 mg·ml^−1 stock solution. Further dilutions were prepared on the day of biological assays. All the drug solutions were stored at 4°C for later use. Vero cells (Vero E-6) were obtained from the Center for Traditional Medicine Drugs and Research (CTMDR), KEMRI. Vero cells are kidney cells extracted from an African green monkey (Cercopithecus aethiops). […] Cells were maintained in Minimum Essential Eagle's Medium (MEM) containing 10% fetal bovine serum (FBS), PenStrep, and glutamine. Vero cells were cultured using T-75 culture flasks. The flasks were kept at 37°C in 5% CO2, and the cells were passaged every 2 to 3 days to keep the cells alive. Trypsinization was carried out to detached cells which overlap each other and counted using a hemocytometer (Neubauer).
(§2) Using a 96-microwell plate, a cell density of 20,000 vero cells were seeded and incubated for 24 hours at 37°C under 5% CO2 to allow cells to attach to the surface/base of the plate. […] The plates were incubated for 48 hours at 37°C under 5% CO2 to allow the reaction to occur. After 48 hours, 0.5 mg/ml of 3-(4, 5-dimethylthiazol-2-yl)-2,5-diphenyltetra-zolium bromide (MTT) was added for calorimetric measurement of the ability of a drug to kill the vero cell lines. The plates were incubated at 37°C for 3 hours. 100 μL of 100% DMSO was added to each well and mixed to ensure cell lysis and dissolving of the formazan crystals. Doxorubicin was used as a control drug.
(§3) The amount of formazan measured was directly proportional to the number of viable cells.

[4] = test system: vero cells (Vero E-6); test: MTT cytotoxicity assay; type: cell-based, African green monkey (Cercopithecus aethiops); conditions: vero cells
Method: as §1, §2, §3

[5] = test system: P. berghei ANKA; test: In vivo efficacy, 4-day oral treatment of infected mice; set-up: species or system Plasmodium berghei in female Swiss albino mice; conditions: for ED50: P. berghei ANKA sensitive strain in mice, four days of oral treatment; for Average parasitaemia, Day 7 / Average parasitaemia, Day 9 / Average parasitaemia, Day 11: after stopping the treatment with 10 mg/kg; for Number of mice which survived up to 11 days: 5 mice per group
Method: Female Swiss albino mice were collected and kept in the animal house of the Center for Biotechnology and Research Development at the Kenya Medical Research Institute (KEMRI), where the animal experiments were carried out. The animals were six weeks old, weighing 20 to 22 g, and they were kept in mice cages and were allowed to access mice pencils (Ungafeed Company Ltd) and water before experimental testing. Plasmodium berghei ANKA strains, sensitive to quinolone and artemisinin-based drugs, were obtained from the Unit of Malaria, Center for Biotechnology and Research and Development, Kenya Medical Research Institute. Parasites were maintained and cryopreserved in a freezer (−80°C). The parasite was subsequently maintained in the laboratory by serial blood passage from mouse to mouse on a weekly basis.
This consisted of in vivo evaluation of hybrid drug against P. berghei ANKA, a rodent parasite which is commonly used in antimalarial studies. Female Swiss albino donor mouse was injected intraperitoneally with 0.2 ml of inoculums of 1 × 10^7 parasitized erythrocytes, and P. berghei ANKA strain was obtained from the donor mouse. Parasitaemia was assessed after 5 days under microscope using the Giemsa staining technique. The donor mouse was sedated using carbon dioxide to collect blood via cardiac puncture in a heparinized tube using a syringe and a needle. Carcasses were pooled in a biohazard container and stored at room temperature while waiting to be incinerated. Afterward, the experimental mice were infected with inoculums of 1 × 10^7 parasitized erythrocytes using an intraperitoneal method. The mice were grouped into five groups consisting of 5 mice per group. […] Blood for making thin blood smear was collected from the tip of the mouse tail. The efficacy of the drug was measured by comparison of blood parasitaemia after the four days of therapy (i.e., on day 5 postinfection). The ones still alive at the end of the experiments were killed by using carbon dioxide gas followed by incineration.
The determination of the dose to be administered was calculated individually according to each mouse weight. In this regard, these formulas were applied: HED (mg/kg) = Animal Dose (mg/kg) ∗ [Animal km/Human km], where HED stands for human equivalent dose and km which is a conversion factor. With km (a constant) = Weight/Body surface area. For mice of 0.02 kg, with a body surface area of 0.007, km = 0.02/0.007 = 3 [15].(3) Dosage mg/kg =Drug concentration mg/ml∗Volume ml/Body weightkg.
From formula (2),(4) Volume ml of drug to be given to each mouse=Body weight kg∗Dosage mg/kg/Drug concentration mg/ml .
The parasitaemia was checked for every 24 hours from the time of infection for 4 days. Thin blood smears were prepared from each mouse tail venous blood. The smears were prepared by the Giemsa staining technique, and the parasitaemia of individual mouse had been checked using a light microscope. The following formula was used to calculate the percentage parasitaemia:(5) The Percentage of parasitaemia=Number of parasitized RBCs/field/Total number of RBCs/field ∗100.
After 4 days, the percentage (%) chemosuppression of each drug was determined using the following formula [17]:(6) Percentage chemosuppression= 100−A−B/A×100, where A is the mean parasitaemia in the negative control group and B is the parasitaemia in the test group. The dose that cured 50% of infected animals had been determined as effective dose (ED50) using a nonlinear regression logistic dose-response model.

[6] = Acute oral toxicity in mice; type: in vivo; conditions: for Number of dead mice: 3 mice per group, head says after 28 days, text 14 days, listed as sarcosine-aniline hybrid drug; for Mean average of weight after 14 days: initial weights 20 to 22 g
Method: In this step, acute toxicity was performed. Three dosages, such as 2000 mg·kg^−1, and 300 mg·kg^−1, and 50 mg/kg were administered orally to mice in three groups, and the fourth group which served as a control received water as a placebo. Each group consisted of 3 mice, and the weight and number of dead mice were monitored and recorded after each 4 days over an interval of 14 days. Clinical or physical signs were also subjected to be recorded during the study period. At the end of the experiment, the mice were killed by using concentrated carbon dioxide gas followed by incineration. The number of dead mice was to be recorded, and a semilog plot of log concentration against percentage (%) response was made.

[7] = test system: P. falciparum 3D7 strains (CQ sensitive); test: In vitro drug sensitivity, tritiated hypoxanthine incorporation assay; type: cell-based, Plasmodium falciparum; conditions: P. falciparum 3D7, CQ sensitive, [3H]hypoxanthine uptake, 48 hours
Method: Further dilutions were prepared on the day of biological assays. All the drug solutions were stored at 4°C for later use.

[8] = test system: acute falciparum malaria; conditions: patients, 0 to 250 mg artesunate together with a curative dose of mefloquine; cited from earlier work
[9] = set-up: method as in PMID 23433124; conditions: cited from earlier work
[10] = test system: vero cells; conditions: cited from earlier work
[11] = set-up: method as in PMID 21189459; conditions: 20 mg/kg, oral route, mice; cited from earlier work
[12] = Plasmodium berghei, 96 h, read-out: ED50
[13] = Plasmodium falciparum, read-out: IC50
[14] = 10 mg/kg oral, after 4 days of treatment

Compound	Average parasitaemia, Day 7 [5] [%]	Average parasitaemia, Day 9 [5] [%]	Average parasitaemia, Day 11 [5] [%]	Number of mice which survived up to 11 days ([5]; dosage 0.625 mg/kg oral)	Number of mice which survived up to 11 days ([5]; dosage 1.25 mg/kg oral)	Number of mice which survived up to 11 days ([5]; dosage 2.5 mg/kg oral)	Number of mice which survived up to 11 days ([5]; dosage 5 mg/kg oral)	Number of mice which survived up to 11 days ([5]; dosage 10 mg/kg oral)	Percentage of chemosupression of parasitaemia [5, 14] [%]	ED50 [5]	other results
CNCC(=O)Nc1ccc(Oc2ccc(Cl)cc2)c(Cl)c1 [Sarcosine-aniline hybrid, 3-Chloro-4(4-chlorophenoxy) Methyglycylanilde]	9.74	12.98	15.61	1	1	1	2	3			Solubility in dimethyl sulfoxide (DMSO) ([1]; DMSO): soluble; Solubility in Tween 80 ([1]; Tween 80): slightly soluble; Solubility in water [1]: very low; Number of dead mice [2]: 0; CC50 at 48 h ([3]; Vero E-6 cells, vero cells, MTT, 48 hours, triplicate, read-out: Mean CC50): 50.2 µg/mL (≈ 154 µM); Mean difference of CC50 versus artesunate ([4]; sarcosine-aniline hybrid VS artesunate, in µg/mL): 30.48; Mean difference of CC50 versus chloroquine ([4]; sarcosine-aniline hybrid VS chloroquine): -7.78; Mean difference of CC50 versus doxorubicin ([4]; sarcosine-aniline hybrid VS doxorubicin, in µg/mL): 48.21; ED50 [5, 12]: 6.49 mg/kg; Number of dead mice ([6]; 50 mg/kg oral): No mouse died; Mean average of weight after 14 days ([6]; 50 mg/kg oral): 22.24 g; Number of dead mice ([6]; 300 mg/kg oral): No mouse died; Mean average of weight after 14 days ([6]; 300 mg/kg oral): 21.58 g; Number of dead mice ([6]; 2000 mg/kg oral): No mouse died; Mean average of weight after 14 days ([6]; 2000 mg/kg oral): 21.34 g; Therapeutic index (LD50/ED50) ([6]; LD50 >5000 mg/kg, ED50 6.49 mg/kg): greater than 770.41; LD50 at 14 days ([6]; mouse, in vivo, oral, mice, estimated from no deaths at 2000 mg/kg): > 5000 mg/kg; OECD/OCDE guideline toxicity category ([6]; oral acute toxicity, mice): category 5; Therapeutic index relative to that of artesunate ([6]; versus artesunate therapeutic index of 4 from Xie et al. [31]): 192.6 fold; IC50 [7, 13]: 0.0448 ± 0.0047 µg/mL (≈ 0.138 µM)
COc1cccc2c1C(=O)c1c(O)c3c(c(O)c1C2=O)C[C@@](O)(C(=O)CO)C[C@@H]3O[C@H]1C[C@H](N)[C@H](O)[C@H](C)O1 [Doxorubicin]											CC50 at 48 h [3]: 1.96 µg/mL (≈ 3.61 µM)
C[C@H]1[C@H](OC(=O)CCC(=O)O)O[C@@H]2O[C@@]3(C)CC[C@H]4[C@H](C)CC[C@@H]1[C@@]24OO3 [Artesunate]	0.00	0.2	0.67	2	3	4	3	5	100		CC50 at 48 h [3]: 19.7 µg/mL (≈ 51.2 µM); Parasites observed under the microscope [5, 14]: No parasites were observed; ED50 [5, 12]: 2.94 mg/kg; Number of mice which survived up to 11 days ([5]; dosage 10 mg/kg oral, listed as artesunate): all mice; IC50 [7, 13]: 0.00263 ± 0.00038 µg/mL (≈ 0.00684 µM); ED50 [8]: 1.6 mg/kg; ED50 ([9]; intraperitoneal route): < 1 mg/kg; ED50 ([9]; oral route, artesunate with 80 mg/kg as highest dosage): 1.8 mg/kg
3-chloro-4-(4-chlorophenoxy) aniline	6.97	9.03	11.84	1	3	3	2	4	68	3.61 mg/kg	IC50 [7]: 0.02286 ± 0.00126 µg/mL
C[C@H]1[C@H](OC(=O)CCC(=O)Nc2ccc(Oc3ccc(Cl)cc3)c(Cl)c2)O[C@@H]2O[C@@]3(C)CC[C@H]4[C@H](C)CC[C@@H]1[C@@]24OO3 [Artesunate-aniline hybrid]				1	3	3	2	3		3.56 mg/kg	
CCN(CC)CCCC(C)Nc1ccnc2cc(Cl)ccc12 (stereo not shown) [Chloroquine]	0.00	0.03	0.42	3	3	4	4	5	100		Concentrations not revealing cytotoxicity effects [10]: ≤ 50 µg/mL; Concentrations showing major cytotoxicity [10]: ≥ 500 µg/mL; Chemosupression [11]: 100%; Number of mice which survived up to 11 days ([5]; dosage 10 mg/kg oral, listed as chloroquine): all mice
CNCC(=O)O [Sarcosine, N-methyl glycine]				0	1	1	2	1		did not show in vivo activity; also recorded: No activity	Solubility in water [1]: completely soluble; ED50 ([5]; listed as sarcosine): not detectable; IC50 [7]: did not show in vitro activity; also recorded: No activity
